Several values for one entry are separate records, joined by “and”; a condition that tells them apart may be missing. Equal entries are not always repeated. Where two headings read alike, the source gives them in different places. Numbered stars: 1 amine (or outer) side, 2 acyl side, 3 side chain; on linkers, the order of the positions; unused ones are H or OH. Square brackets hold non-standard residues; d marks the D form. Peptide text beside a SMILES is read from it. NMeTrp(1-(4-Br-benzyl)) = CN[C@@H](Cc1cn(Cc2ccc(Br)cc2)c2ccccc12)C(=O)O; X3 = CCn1cc(C[C@@H](C(=O)[*:2])N(C)[*:1])c2ccccc21; Butanoyl(2R-oxy,4-CN) = N#CCC[C@@H](O)C(=O)O; Abu(4,4,4-F3) = N[C@@H](CC(F)(F)F)C(=O)O; NMeL = CN[C@@H](CC(C)C)C(=O)O; NMeA = CN[C@@H](C)C(=O)O
Experiments:
SARS-CoV-2 [1] = conditions: infected 48 h
SARS-CoV-2 [2] = format: cell-based; conditions: 48 h
SARS-CoV-2 [3] = format: cell-based; conditions: 48 h; remark: listed apart in the source
Sec61 = biological target: T1, Sec61 (Homo sapiens, UniProt P61619); experiment: cell-based; conditions: for IC50: 24 h, range in brackets
T1 construct: endogenous in cells

[4] = tested on: collagen antibody-induced arthritis in BALB/c mice; experiment: Anticollagen antibody-induced arthritis model, clinical scores; format: in vivo, mouse; conditions: individual mice

T1 sequence (P60059 whole entry): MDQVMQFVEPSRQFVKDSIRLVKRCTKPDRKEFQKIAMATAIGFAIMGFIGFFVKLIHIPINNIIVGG
T1 sequence (P61619 whole entry): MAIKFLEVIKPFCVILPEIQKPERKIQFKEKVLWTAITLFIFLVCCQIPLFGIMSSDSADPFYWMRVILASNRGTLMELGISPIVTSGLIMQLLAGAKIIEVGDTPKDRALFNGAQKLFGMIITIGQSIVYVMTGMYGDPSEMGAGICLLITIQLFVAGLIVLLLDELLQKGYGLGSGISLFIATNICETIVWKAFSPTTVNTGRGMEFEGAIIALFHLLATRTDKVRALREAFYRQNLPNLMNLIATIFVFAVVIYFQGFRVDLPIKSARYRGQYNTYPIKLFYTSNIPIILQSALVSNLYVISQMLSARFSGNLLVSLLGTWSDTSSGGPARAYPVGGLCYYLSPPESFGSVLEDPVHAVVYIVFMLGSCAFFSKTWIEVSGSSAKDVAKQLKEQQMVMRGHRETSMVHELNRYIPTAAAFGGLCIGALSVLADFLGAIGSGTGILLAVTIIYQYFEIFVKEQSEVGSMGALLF
T1 sequence (P60468 whole entry, further chain): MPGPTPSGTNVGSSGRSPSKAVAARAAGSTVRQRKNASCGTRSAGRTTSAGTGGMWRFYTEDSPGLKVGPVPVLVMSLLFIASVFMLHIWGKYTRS

## CC[C@H]1CN2CCc3cc(OC)c(OC)cc3[C@@H]2C[C@@H]1C[C@H]1NCCc2cc(OC)c(OC)cc21 [Emetine, reference compound]
SARS-CoV-2 [1]; 0.01 uM
  cell viability: 70.4141 and 72.6149 and 69.2712
SARS-CoV-2 [1]; 0.04 uM
  cell viability: 77.6184 and 78.5394 and 67.5514
SARS-CoV-2 [1]; 0.12 uM
  cell viability: 91.8387 and 89.8998 and 85.3326
SARS-CoV-2 [1]; 0.37 uM
  cell viability: 98.5387 and 106.593 and 107.116
SARS-CoV-2 [1]; 1.11 uM
  cell viability: 85.9306 and 97.0439 and 95.1349
SARS-CoV-2 [1]; 3.33 uM
  cell viability: 86.5239 and 91.9706 and 91.8345
SARS-CoV-2 [1]; 10 uM
  cell viability: 89.2076 and 95.1684 and 93.0072
SARS-CoV-2 [2]; 1.11 uM
  infectious virus particle production: 632.456 TCID50 per milliliter
SARS-CoV-2 [2]; 3.33 uM
  infectious virus particle production: 632.456 TCID50 per milliliter and 430.887 TCID50 per milliliter
SARS-CoV-2 [2]; 10 uM
  infectious virus particle production: 632.456 TCID50 per milliliter
SARS-CoV-2 [3]; 0.01 uM
  viral genome copy number: 24100000 and 12600000 and 15400000
SARS-CoV-2 [3]; 0.04 uM
  viral genome copy number: 19500000 and 12600000 and 14500000
SARS-CoV-2 [3]; 0.12 uM
  viral genome copy number: 9690000 and 6770000 and 10700000
SARS-CoV-2 [3]; 1.11 uM
  viral genome copy number: 81000 and 73500 and 71100
SARS-CoV-2 [3]; 3.33 uM
  viral genome copy number: 85400 and 62200 and 61600
SARS-CoV-2 [3]; 10 uM
  viral genome copy number: 58200 and 54400 and 71200

## CCn1cc(C[C@H]2C(=O)N[C@@H](CC(C)C)C(=O)N(C)[C@@H](C)C(=O)O[C@H](CCC#N)C(=O)N[C@@H](CC(F)(F)F)C(=O)N(C)[C@@H](CC(C)C)C(=O)N[C@@H](CC(F)(F)F)C(=O)N2C)c2ccccc21 [KZR-9508] (cyclo(L[NMeA][Butanoyl(2R-oxy,4-CN)][Abu(4,4,4-F3)][NMeL][Abu(4,4,4-F3)][X3]))
Sec61
  selectivity compared with KZR-8445: greater selectivity
Sec61; HER3 signal peptide-GLuc, read-out: IC50 (nM) HER3
  IC50: 103 nM and ~100 nM
Sec61; PD1 signal peptide-GLuc, read-out: IC50 (nM) PD1
  IC50: 388 nM
Sec61; four of five GLuc reporters
  loss of potency relative to KZR-8445: 10–20 fold
Sec61; full-length IL-2-GLuc, read-out: IC50 (nM) IL-2
  IC50: 1420 nM
Sec61; full-length TNFα-GLuc, read-out: IC50 (nM) TNFα
  IC50: 908 nM
Sec61; prolactin signal peptide-GLuc, read-out: IC50 (nM) Prolactin
  IC50: 25600 nM

## CC(C)C[C@@H]1NC(=O)[C@H](Cc2cn(Cc3ccc(Br)cc3)c3ccccc23)N(C)C(=O)[C@H](CC(F)(F)F)NC(=O)[C@H](CC(C)C)N(C)C(=O)[C@H](CC(F)(F)F)NC(=O)[C@@H](CCC#N)OC(=O)[C@H](C)N(C)C1=O [KZR-508445] (cyclo(L[NMeA][Butanoyl(2R-oxy,4-CN)][Abu(4,4,4-F3)][NMeL][Abu(4,4,4-F3)][NMeTrp(1-(4-Br-benzyl))]))
[4]; 2.5 mg/kg IV QODx3, day 13
  Clinical score: 9 (2×) and 6 and 11 (2×) and 4 and 12 and 8 and 13 and 7
[4]; 2.5 mg/kg IV QODx3, day 14
  Clinical score: 9 (2×) and 5 and 11 (2×) and 2 and 12 and 10 and 13 and 7
[4]; 5 mg/kg IV QODx3, day 13
  Clinical score: 11 (2×) and 5 and 10 and 4 (3×) and 8 and 7 and 9
[4]; 5 mg/kg IV QODx3, day 14
  Clinical score: 12 and 5 and 8 (2×) and 4 (2×) and 3 and 6 and 9 and 11
[4]; 10 mg/kg IV QODx3, day 13
  Clinical score: 4 and 6 (3×) and 9 (2×) and 5 (2×) and 3 and 7
[4]; 10 mg/kg IV QODx3, day 14
  Clinical score: 5 (3×) and 7 (2×) and 9 and 6 and 8 (2×) and 3
[4]; 20 mg/kg IV QODx3, day 4
  Clinical score: 1 (4×) and 2 (2×)
[4]; 20 mg/kg IV QODx3, day 13
  Clinical score: 1 (2×) and 3 (2×) and 2 and 0 and 4
[4]; 20 mg/kg IV QODx3, day 14
  Clinical score: 1 (2×) and 3 (3×) and 2 and 0
[4]; 20 mg/kg IV QW, day 13
  Clinical score: 0 and 2 and 9 and 6 (2×) and 7 (2×) and 8 (2×) and 4
[4]; 20 mg/kg IV QW, day 14
  Clinical score: 0 and 2 and 9 (2×) and 7 (2×) and 6 and 8 (2×) and 5

## CCn1cc(C[C@H]2C(=O)N[C@@H](CC(C)C)C(=O)N(C)[C@@H](C)C(=O)O[C@H](CCC#N)C(=O)N[C@@H](CC(F)(F)F)C(=O)N(C)[C@@H](CC(C)C)C(=O)N[C@@H](CC(F)(F)F)C(=O)N2C)c2ccccc21 [KZR-0509508] (cyclo(L[NMeA][Butanoyl(2R-oxy,4-CN)][Abu(4,4,4-F3)][NMeL][Abu(4,4,4-F3)][X3]))
Sec61; HER3, Concentration 0.32
  GLuc reporter raw signal (replicates): 2917200 and 2920600 and 2895100
Sec61; HER3, Concentration 40
  GLuc reporter raw signal (replicates): 2324600 and 2421500 and 2482600
Sec61; HER3, Concentration 200
  GLuc reporter raw signal (replicates): 860870 and 901980 and 850270
Sec61; HER3, Concentration 1000
  GLuc reporter raw signal (replicates): 128950 and 127590 and 122180
Sec61; HER3, Concentration 5000
  GLuc reporter raw signal (replicates): 21107 and 19954 and 21458
Sec61; HER3, Concentration 25000
  GLuc reporter raw signal (replicates): 18661 and 19673 and 20195
Sec61; IL2, Concentration 0.32
  GLuc reporter raw signal (replicates): 2617800 and 2680800 and 2713900
Sec61; IL2, Concentration 8
  GLuc reporter raw signal (replicates): 2560100 and 2737500 and 2592900
Sec61; IL2, Concentration 40
  GLuc reporter raw signal (replicates): 2448500 and 2433000 and 2516300
Sec61; IL2, Concentration 200
  GLuc reporter raw signal (replicates): 2434300 and 2250900 and 2386200
Sec61; IL2, Concentration 1000
  GLuc reporter raw signal (replicates): 1366100 and 1331100 and 1340300
Sec61; IL2, Concentration 5000
  GLuc reporter raw signal (replicates): 148660 and 137160 and 137620
Sec61; IL2, Concentration 25000
  GLuc reporter raw signal (replicates): 72344 and 71940 and 72808
Sec61; PD1, Concentration 0.32
  GLuc reporter raw signal (replicates): 1140200 and 1151600 and 1079300
Sec61; PD1, Concentration 8
  GLuc reporter raw signal (replicates): 1090400 and 1094000 and 1069700
Sec61; PD1, Concentration 40
  GLuc reporter raw signal (replicates): 1001600 and 1054300 and 960410
Sec61; PD1, Concentration 200
  GLuc reporter raw signal (replicates): 810270 and 826880 and 727000
Sec61; PD1, Concentration 1000
  GLuc reporter raw signal (replicates): 298160 and 288700 and 294700
Sec61; PD1, Concentration 5000
  GLuc reporter raw signal (replicates): 19269 and 21595 and 21074
Sec61; PD1, Concentration 25000
  GLuc reporter raw signal (replicates): 12135 and 12576 and 11044
Sec61; Prolactin, Concentration 0.32
  GLuc reporter raw signal (replicates): 8343700 and 8651000 and 8237500
Sec61; Prolactin, Concentration 8
  GLuc reporter raw signal (replicates): 8140000 and 8910000 and 8852700
Sec61; Prolactin, Concentration 40
  GLuc reporter raw signal (replicates): 8482300 and 8946000 and 7991900
Sec61; Prolactin, Concentration 200
  GLuc reporter raw signal (replicates): 8151300 and 9013100 and 8191700
Sec61; Prolactin, Concentration 1000
  GLuc reporter raw signal (replicates): 7614900 and 8029100 and 7622300
Sec61; Prolactin, Concentration 5000
  GLuc reporter raw signal (replicates): 6257700 and 6043200 and 6299800
Sec61; Prolactin, Concentration 25000
  GLuc reporter raw signal (replicates): 4760600 and 4742900 and 4623400
Sec61; TNFa, Concentration 0.32
  GLuc reporter raw signal (replicates): 157540 and 153990 and 156290
Sec61; TNFa, Concentration 8
  GLuc reporter raw signal (replicates): 177590
Sec61; TNFa, Concentration 40
  GLuc reporter raw signal (replicates): 174140 and 177930 and 180980
Sec61; TNFa, Concentration 200
  GLuc reporter raw signal (replicates): 165100 and 188550 and 172890
Sec61; TNFa, Concentration 1000
  GLuc reporter raw signal (replicates): 101080 and 103620 and 107580
Sec61; TNFa, Concentration 5000
  GLuc reporter raw signal (replicates): 30162 and 28185 and 30634
Sec61; TNFa, Concentration 25000
  GLuc reporter raw signal (replicates): 17845 and 17474 and 16301

## C[C@@H]1C[C@H]2[C@@H]3CCC4=CC(=O)C=C[C@]4(C)[C@@]3(F)[C@@H](O)C[C@]2(C)[C@@]1(O)C(=O)CO [dexamethasone, reference compound]
[4]; 1.5mg/kg IP QODx3, day 4
  Clinical score: 1 (5×) and 2 (4×) and 3
[4]; 1.5mg/kg IP QODx3, day 5
  Clinical score: 3 (5×) and 4 (2×) and 2 and 5 (2×)
[4]; 1.5mg/kg IP QODx3, day 6
  Clinical score: 4 (2×) and 6 (6×) and 2 and 5
[4]; 1.5mg/kg IP QODx3, day 7
  Clinical score: 6 (4×) and 4 and 7 (3×) and 5 and 8
[4]; 1.5mg/kg IP QODx3, day 10
  Clinical score: 6 (3×) and 7 (2×) and 9 (2×) and 5 and 11 and 8
[4]; 1.5mg/kg IP QODx3, day 11
  Clinical score: 7 (3×) and 6 (2×) and 8 (2×) and 4 and 9 and 10
[4]; 1.5mg/kg IP QODx3, day 12
  Clinical score: 7 (4×) and 6 (2×) and 9 (3×) and 3
[4]; 1.5mg/kg IP QODx3, day 13
  Clinical score: 7 (3×) and 5 and 6 (2×) and 8 (2×) and 3 and 9
[4]; 1.5mg/kg IP QODx3, day 14
  Clinical score: 6 (2×) and 5 and 8 (2×) and 7 (2×) and 3 and 10 and 9

— article PMC10449633 (Nature Chemical Biology, 2023)
